Entries after “also recorded” stand apart in the source; their conditions may differ.

This is an account of results in publication PMC9530166, “Allosteric regulation of glycogen breakdown by the second messenger cyclic di-GMP” (Nature Communications, 2022).

In assay [1] the target is BldD. More on the design: method as in PMID 25171413, PMID 31810759. The conditions noted are these: cited from earlier work.
In assay [2] the test system is His6-GlgXDETR(49-52). As to the kind of experiment: nanoDSF thermal shift assay, RETD49-52 swap mutant. It is filed as binding, Streptomyces venezuelae. The conditions noted are these: His6-GlgXDETR(49-52) mutant. As to the method:
Arginine and aspartic acid arranged in an RxxD motif are often found as c-di-GMP binding signatures in effector proteins[28],[34]. […] To determine if either of these motifs are involved in c-di-GMP binding, we swapped the arginine and aspartic acid residues in the two motifs and purified His6-GlgXDETR(49-52) and His6-GlgXDLVR(212-215).
For label-free thermal shift assay experiments, 10 μM purified protein in 25 mM Tris pH 8, 150 mM NaCl, 2.5% (v/v) glycerol, and 5 mM MgCl2 was incubated without or with (1 mM) of nonlabeled c-di-GMP or c-di-AMP, respectively, at rt for 10 min. Reactions were subsequently analyzed in a Tycho NT.6 (NanoTemper Technologies) device with a 30 K/min thermal ramp and the internal fluorescence at 330 and 350 nm was recorded. Data analysis and calculation of derivatives was done using the internal evaluation features of the Tycho instrument.
217 Supplementary Fig. 5: NanoDSF assays with mutagenized His6-GlgX variants. (a) Swap of the
219 This was confirmed by DRaCALA, right. For DRaCALA assays, 15 µg of purified E. coli His6-GlgX
220 or His6-Vnz25270, respectively, were mixed with 0.5 µl of [32P]-c-di-GMP (Hartmann Analytic
221 GmbH, Braunschweig) in binding buffer (25 mM Tris pH 8.0, 150 mM NaCl, 2.5% (v/v) glycerol
222 and 5 mM MgCl2). […]
223 air dried for 10 min and analyzed by phosphorimaging. […]
On the technique in general: DSF heats the sample and reads unfolding from a dye or from intrinsic fluorescence.

The target in assay [3] is GlgX (Streptomyces venezuelae, UniProt F2RAW5). As to the kind of experiment: Microscale thermophoresis (MST). The conditions noted are these: 40 nM RED-NHS labeled GlgX, unlabeled c-di-GMP, n=2. It is filed as binding. On the procedure: For MST experiments, purified GlgX was labeled using Monolith NT protein labeling kit RED-NHS (amine reactive) dye (NanoTemper Technologies GmbH) according to manufacturer´s guidelines. The protein concentration was adjusted to 20 μM in labeling buffer and the labeling reaction was carried out at rt for 30 min in the dark. Excess fluorescence dye was subsequently removed from the labeled protein by gel filtration using a dye removal column provided by the supplier and equilibrated with MST buffer (25 mM Tris pH 8, 150 mM NaCl, 2.5% (v/v) glycerol, 5 mM MgCl2, 0.05% (v/v) Tween). A UV/VIS spectrophotometry at 650 and 280 nm was used to determine the degree of labeling. Next, labeled GlgX was adjusted to 80 nM in MST buffer and a series of 16 1:2 dilutions of c-di-GMP (BioLog) were prepared using the same buffer. An equal volume of protein and c-di-GMP dilutions were mixed resulting in 16 samples with 40 nM protein each and c-di-GMP concentrations ranging from 2 mM to […]. Samples were then loaded into Monolith NT.115 Premium Capillaries (NanoTemper Technologies) and MST was measured using a Monolith NT.115 instrument (NanoTemper Technologies). Instrument parameters were set to 20% LED power and 40% MST power and the data were analyzed using MO.Affinity Analysis software version 2.3; NanoTemper Technologies. […]
GlgX, sequence (F2RAW5 entry or part of it): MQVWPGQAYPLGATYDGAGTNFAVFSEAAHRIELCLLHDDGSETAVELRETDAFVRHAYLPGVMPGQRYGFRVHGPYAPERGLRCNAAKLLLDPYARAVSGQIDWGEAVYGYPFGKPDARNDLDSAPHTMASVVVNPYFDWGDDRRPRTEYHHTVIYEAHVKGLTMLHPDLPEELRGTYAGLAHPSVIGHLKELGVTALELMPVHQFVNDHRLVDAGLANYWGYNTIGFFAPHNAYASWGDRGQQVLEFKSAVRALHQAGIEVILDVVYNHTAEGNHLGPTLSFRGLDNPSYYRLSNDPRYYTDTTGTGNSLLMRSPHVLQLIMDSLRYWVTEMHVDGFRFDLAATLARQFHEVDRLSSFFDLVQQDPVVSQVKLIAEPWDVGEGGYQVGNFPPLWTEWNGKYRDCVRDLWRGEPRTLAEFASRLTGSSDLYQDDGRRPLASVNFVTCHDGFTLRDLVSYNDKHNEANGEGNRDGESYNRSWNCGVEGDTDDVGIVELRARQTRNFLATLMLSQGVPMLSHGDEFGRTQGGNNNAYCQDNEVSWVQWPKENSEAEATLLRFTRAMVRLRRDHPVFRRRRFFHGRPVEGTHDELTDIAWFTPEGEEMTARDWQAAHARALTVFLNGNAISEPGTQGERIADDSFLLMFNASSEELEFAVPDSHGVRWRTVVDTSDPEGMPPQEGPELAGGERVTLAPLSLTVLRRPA
A general note: MST reads how a fluorescent partner responds to local heating, with and without ligand.

For assay [4], the system named is His6-Vnz25270. As to the kind of experiment: BCA reducing-end enzyme assay, Vnz25270. The assay is classed as biochemical, Streptomyces venezuelae. The conditions noted are these: 50 µM c-di-GMP, 0.05% glycogen from rabbit, 1 µM enzyme. On the procedure: Fig. 2 c-di-GMP stimulates glycogen breakdown activity of GlgX in vitro. a Bicinchoninic acid (BCA) in vitro enzyme assay. The purple copper bicinchoninate complex indicating GlgX-mediated generation of reducing ends in glycogen was quantified by photometric measurements at 562 nm. A562 values were converted into reducing ends [µM glucose equivalents] based on D-glucose as a standard. Reactions contained 0.05% (w/v) glycogen from rabbit, 1 µM GlgX and increasing concentrations of c-di-GMP (0–100 µM). Source data are provided as a Source data file. b BCA assay containing 0.05% of either glycogen from rabbit, pullulan, amylopectin from maize or amylose from potato as substrates. Where appropriate, 1 µM GlgX or 50 µM c-di-GMP were added to the reaction samples. Source data are provided as a Source data file. c BCA assay as in a with or without c-di-GMP (50 µM), 0.05% glycogen from rabbit (S) and 1 µM Vnz25270, GlgX, the active site mutants GlgXD342A, GlgXE378A, GlgXD342A+E378A, or the c-di-GMP-binding mutant variant GlgXDETR49-52 as indicated. […]
Hydrolysis of carbohydrates was assessed in vitro by measuring the accumulation of reducing sugar ends using the BCA assay[42] and D-glucose as a standard for calibration (Supplementary Fig. 11). […] 125 μl sample aliquots were transferred in duplicates to a 96 well plate and the absorbance at 562 nm was measured using a plate reader.

Consider `Nc1nc2c(ncn2[C@@H]2O[C@@H]3CO[P@](=O)(O)O[C@H]4[C@@H](O)[C@H](n5cnc6c(=O)[nH]c(N)nc65)O[C@@H]4CO[P@](=O)(O)O[C@H]3[C@H]2O)c(=O)[nH]1` [c-di-GMP, bis-(3′−5′)-cyclic diguanosine monophosphate], for which the Kd in assay [1] was 2.5 ± 0.6 µM; in assay [3], 8.3 µM. Also, the “effect of c-di-GMP in nanoDSF” value in assay [2] is recorded as “abolishes c-di-GMP binding; also recorded: no effect”. Also, in assay [4], the “effect of c-di-GMP on hydrolytic activity” value is given as “remained at basal levels”.

A word on the Kd: it is the constant that tells how readily two partners part at equilibrium.
